According to the supplement of paper PMC10307832:

Key:
Assay in all cases: relative viability (nuclei count vs DMSO), 5 days (fraction); higher = more cells survive
GSK-J4 + Bortezomib = compound: CCOC(=O)CCNc1cc(N2CCc3ccccc3CC2)nc(-c2ccccn2)n1 [GSK-J4] + CC(C)C[C@H](NC(=O)[C@H](Cc1ccccc1)NC(=O)c1cnccn1)B(O)O [Bortezomib] (partner 0.002 µM)
In short: (§1)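 Relative viability is defined as nuclei in treated wells over nuclei in vehicle wells. Duplicate plates were run and medians reported. Lung cancer cell lines in 1536-well plates were dosed by pin tool one day after seeding, with one drug or with a fixed anchor-drug dose plus five library-drug doses (not always all listed) in √10 steps, and nuclei were counted after 5 days.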

GSK-J4 + Luminespib = compound: CCOC(=O)CCNc1cc(N2CCc3ccccc3CC2)nc(-c2ccccn2)n1 [GSK-J4] + CCNC(=O)c1noc(-c2cc(C(C)C)c(O)cc2O)c1-c1ccc(CN2CCOCC2)cc1 [Luminespib] (partner 0.01 µM)
In short: as §1

AZ3146 + Lapatinib = compound: CN1CCC(CC1)OC2=CC(=C(C=C2)NC3=NC=C4C(=N3)N(C(=O)N4C)C5CCCC5)OC [AZ3146] + CS(=O)(=O)CCNCc1ccc(-c2ccc3ncnc(Nc4ccc(OCc5cccc(F)c5)c(Cl)c4)c3c2)o1 [Lapatinib] (partner 2 µM)
In short: as §1

GSK-J4 + Dasatinib = compound: CCOC(=O)CCNc1cc(N2CCc3ccccc3CC2)nc(-c2ccccn2)n1 [GSK-J4] + Cc1nc(Nc2ncc(C(=O)Nc3c(C)cccc3Cl)s2)cc(N2CCN(CCO)CC2)n1 [Dasatinib] (partner 0.075 µM)
In short: as §1

Cell Line UMC-11 has a relative viability (GSK-J4 + Bortezomib; first compound 0.5 µM) of 0.774, a relative viability (GSK-J4 + Bortezomib; first compound 1.581 µM) of 0.263 and a relative viability (GSK-J4 + Bortezomib; first compound 5 µM) of 0.434. It also gave a relative viability (GSK-J4 + Bortezomib; first compound 15.81 µM) of 0.759, a relative viability (GSK-J4 + Bortezomib; first compound 50 µM) of 0.561 and a relative viability (GSK-J4 + Luminespib; first compound 0.5 µM) of 0.996. It also gave a relative viability (GSK-J4 + Luminespib; first compound 5 µM) of 1.03, a relative viability (GSK-J4 + Luminespib; first compound 15.81 µM) of 0.971 and a relative viability (GSK-J4 + Luminespib; first compound 50 µM) of 0.259. The relative viability (AZ3146 + Lapatinib; first compound 0.08 µM) was 0.793, the relative viability (AZ3146 + Lapatinib; first compound 0.253 µM) was 0.963 and the relative viability (AZ3146 + Lapatinib; first compound 0.8 µM) was 0.99. The relative viability (AZ3146 + Lapatinib; first compound 2.53 µM) was 0.978, the relative viability (AZ3146 + Lapatinib; first compound 8 µM) was 0.531 and the relative viability (GSK-J4 + Dasatinib; first compound 0.5 µM) was 0.43. For the same cell line, the relative viability (GSK-J4 + Dasatinib; first compound 5 µM) was 0.43, the relative viability (GSK-J4 + Dasatinib; first compound 15.81 µM) was 0.392 and the relative viability (GSK-J4 + Dasatinib; first compound 50 µM) was 0.231.
